Reference: PubChem BioAssay AID651581 (Sanford-Burnham Center for Chemical Genomics, 2012)
The source made the active and inactive calls. No rule for the calls is given here.

Key:
[1] = target: Endothelial PAS domain-containing protein 1 (Homo sapiens) (UniProt Q99814); assay: HIF-2a and HIF-1a reporter inhibition panel, dose response, selectivity assay for HIF-2a inhibitor project, cell-based, luminescence (AID 651581)
[2] = target: Hypoxia-inducible factor 1-alpha (Homo sapiens) (UniProt Q16665); assay: as above; details: HIF-1a
Chain of Hypoxia-inducible factor 1-alpha (Homo sapiens) (Q16665 whole entry, looked up): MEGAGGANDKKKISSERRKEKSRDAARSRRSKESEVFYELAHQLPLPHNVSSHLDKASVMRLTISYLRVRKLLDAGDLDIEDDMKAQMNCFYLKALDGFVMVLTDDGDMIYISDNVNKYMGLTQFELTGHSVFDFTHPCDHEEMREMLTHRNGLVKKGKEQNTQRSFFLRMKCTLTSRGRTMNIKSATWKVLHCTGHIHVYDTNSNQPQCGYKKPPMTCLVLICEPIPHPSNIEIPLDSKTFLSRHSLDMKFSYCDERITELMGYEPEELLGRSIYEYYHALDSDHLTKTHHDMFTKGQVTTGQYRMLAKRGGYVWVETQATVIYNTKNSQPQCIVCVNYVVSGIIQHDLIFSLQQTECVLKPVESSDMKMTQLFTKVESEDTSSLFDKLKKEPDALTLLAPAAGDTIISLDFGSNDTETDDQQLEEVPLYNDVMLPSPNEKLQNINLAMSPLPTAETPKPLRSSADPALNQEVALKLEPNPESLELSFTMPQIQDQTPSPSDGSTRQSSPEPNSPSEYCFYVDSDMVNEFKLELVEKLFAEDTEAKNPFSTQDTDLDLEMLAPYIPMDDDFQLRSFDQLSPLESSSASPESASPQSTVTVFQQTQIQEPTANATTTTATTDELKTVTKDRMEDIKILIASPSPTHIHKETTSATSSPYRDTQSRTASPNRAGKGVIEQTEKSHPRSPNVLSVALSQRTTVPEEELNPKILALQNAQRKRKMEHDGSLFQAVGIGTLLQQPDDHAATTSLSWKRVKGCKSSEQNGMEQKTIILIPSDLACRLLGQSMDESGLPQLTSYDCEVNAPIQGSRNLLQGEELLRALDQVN

IC50 ([1]; HIF-2a PANC, mean of runs) | IC50 ([1]; HIF-2a PANC, run 1) | IC50 ([1]; HIF-2a PANC, run 2) | IC50 ([1]; HIF-2a, mean of runs) | IC50 ([1]; HIF-2a, run 1) | IC50 ([1]; HIF-2a, run 2) | IC50 ([2]; mean of runs) | IC50 ([2]; run 1) | IC50 ([2]; run 2) | Compound
inactive | 27.1 µM | 15.3 µM | 4.55 µM | 4.42 µM | 4.68 µM | inactive | 13.7 µM | 11.6 µM | C/C(=N\NC(=O)c1n[nH]c2c1CCC2)c1cccs1
< 0.3 µM | < 1 µM | < 0.3 µM | < 1 µM | < 1 µM | < 1 µM | 64.2 µM | 78.9 µM | 49.5 µM | CC(C)(C)c1ccc(-c2noc(CCC(=O)Nc3cccnc3)n2)cc1
inactive | 44.8 µM | 51.1 µM | 5.57 µM | 5.49 µM | 5.65 µM | 23.5 µM | 22 µM | 24.9 µM | C(=NNc1ccc2ccccc2n1)c1ccccn1
 | > 99 µM | 24.2 µM | 8.61 µM | 8.32 µM | 8.9 µM | inactive | 13.5 µM | 18.5 µM | Cc1nnnn1/C(=C\c1ccccc1)C(=O)OCC(=O)Nc1cccc(S(=O)(=O)N(C)C)c1
6.26 µM | 7.31 µM | 5.21 µM | 3.15 µM | 4.09 µM | 2.2 µM |  | > 99 µM | > 99 µM | COc1cc(OC)cc(-c2nnc(Nc3nc4c(F)cccc4s3)o2)c1
> 99 µM (inactive) | > 99 µM | > 99 µM | 3.37 µM | 3.54 µM | 3.2 µM |  | > 99 µM | > 99 µM | O=S(=O)(Nc1cccc2cccnc12)c1ccccc1
 | > 99 µM | 51.9 µM | 9.86 µM | 10.2 µM | 9.56 µM | inactive | 20.9 µM | 16.9 µM | COc1ccccc1C(C[N+](=O)[O-])c1c(N)n(C)c(=O)n(C)c1=O (stereo unspecified)
< 1 µM (inactive) | < 1 µM | < 3 µM | 0.243 µM | 0.246 µM | 0.241 µM | < 10 µM | < 10 µM | < 10 µM | COC(=O)Cc1ccc(NC(=O)c2ccc(C(C)(C)C)cc2)cc1
> 99 µM (inactive) | > 99 µM | > 99 µM | inactive | 13.2 µM | 16.5 µM |  | > 99 µM | > 99 µM | CCOC(=O)c1cccc(COC(=O)c2cccc(-c3nnc(-c4ccccc4)o3)c2)c1
 | > 99 µM | < 3 µM | 7.05 µM | 7.84 µM | 6.26 µM | 40.8 µM | 41.2 µM | 40.3 µM | O=[N+]([O-])C1C(c2ccccc2)C12c1ccccc1-c1ccccc12 (stereo unspecified)
< 0.3 µM | < 1 µM | < 0.3 µM | < 0.3 µM | < 0.3 µM | < 0.3 µM |  | > 99 µM | > 99 µM | CC(C)(C)c1ccc(-c2noc(CCC(N)=O)n2)cc1
> 99 µM (inactive) | > 99 µM | > 99 µM | inactive | 14.7 µM | 14.7 µM |  | 71.7 µM | > 99 µM | Nc1nc2ccc(S(=O)(=O)c3ccc4nc(N)sc4c3)cc2s1
11.2 µM | 10.1 µM | 12.4 µM | 7.76 µM | 8.03 µM | 7.48 µM |  | > 99 µM | 86 µM | O=C(Nc1ccc(NC(=O)c2ccco2)cc1)c1ccc2c(c1)OCCO2
 | > 99 µM | 11.8 µM | 9.3 µM | 10.1 µM | 8.49 µM | inactive | 26.8 µM | 6.7 µM | COc1ccc(CNC(=O)CCc2c(C)nc3cc(-c4ccccc4OC)nn3c2C)cc1
17.9 µM | 24.8 µM | 11 µM | < 30 µM (inactive) | < 30 µM | < 30 µM |  | 13.7 µM | < 30 µM | CN(C)c1ccc(Nc2nc(N)c3ccccc3n2)cc1
9.77 µM | 9.59 µM | 9.94 µM | < 10 µM | < 10 µM | < 10 µM |  | > 99 µM | > 99 µM | COC(=O)c1cccc(-c2noc(-c3ccccc3F)n2)c1
3.65 µM | 5.51 µM | 1.79 µM | 1.88 µM | 2.55 µM | 1.22 µM | 41.4 µM | 38.6 µM | 44.2 µM | COc1ccc2nc(-c3ccc(N)cc3)[nH]c2c1
> 99 µM (inactive) | > 99 µM | > 99 µM | 5.33 µM | 5.25 µM | 5.4 µM |  | > 99 µM | > 99 µM | CSc1ccc(/C=N/Nc2cccc(C(=O)O)c2)cc1
0.708 µM | 0.793 µM | 0.623 µM | 0.276 µM | 0.267 µM | 0.286 µM | 1.12 µM | 1.15 µM | 1.08 µM | Cc1c(CCC(=O)O)c(=O)oc2cc3oc4c(c3cc12)CCCC4
 | > 99 µM | 18.8 µM | 6.36 µM | 6.48 µM | 6.23 µM |  | > 99 µM | > 99 µM | O=C(O)c1cccc(CSc2nnc(COc3ccccc3)o2)c1
> 99 µM (inactive) | > 99 µM | > 99 µM | 9.73 µM | 10.4 µM | 9.1 µM |  | > 99 µM | > 99 µM | O=C(CSc1nnc(-c2ccc(Br)cc2)o1)Nc1cccc(C(=O)O)c1
34.3 µM | 29.4 µM | 39.1 µM | inactive | 12.5 µM | 11.9 µM | inactive | 26 µM | 24.3 µM | Cn1c(/C=C/c2ccc(Cl)cc2)c([N+](=O)[O-])c(=O)n(C)c1=O
> 99 µM (inactive) | > 99 µM | > 99 µM | 1.7 µM | 1.92 µM | 1.49 µM |  | > 99 µM | > 99 µM | Cc1ccc(C(C)C)c(OCc2ccc(-c3nnco3)cc2)c1
7.66 µM | 5.49 µM | 9.84 µM | 3.79 µM | 3.7 µM | 3.87 µM | 24.9 µM | 28.2 µM | 21.6 µM | CC(=O)Nc1ccc(OS(=O)(=O)c2ccc(C)cc2C)cc1
< 0.3 µM | < 1 µM | < 0.3 µM |  | > 99 µM | < 0.19 µM | inactive | 52.5 µM | 40.5 µM | CC(C)(C)c1ccc(/C=N/Nc2ccc(C(=O)O)cc2)cc1
11 µM | 11.2 µM | 10.8 µM | inactive | 10.8 µM | 11.6 µM | inactive | 9.31 µM | 22.8 µM | CC(=O)Nc1ccc(NC(=O)c2c([N+](=O)[O-])c(C(C)(C)C)nn2C)cc1
